Assay results: BindingDB's records for doi:10.1021/jm9707030 (Boehringer Ingelheim Pharmaceuticals, 1998)

Tests used:
[1] = molecular target: T1, Gag-Pol polyprotein [600-1027,R876K]/[600-1155] (Human immunodeficiency virus 1, UniProt P03366, R876K); experiment: HIV-1 RT Assay
T1 construct: 600-1027; 600-1155

[2] = molecular target: T2, Gag-Pol polyprotein [600-1027,Y780C]/[600-1155,Y780C] (Human immunodeficiency virus 1, UniProt P03366, Y780C); experiment: HIV-1 RT Assay; conditions: pH 7.8; 22 °C
T2 construct: 600-1027; 600-1155

Row | Structure (SMILES) | IC50 [1] [nM] | other results
1 | CCN1c2ncc(COc3cc[n+]([O-])c(C)c3)cc2C(=O)N(C)c2ccc(Cl)nc21 [2-Chloro-5,11-dihydro-11-ethyl-5-methyl-8-((4-(2-methyl-1-oxo-pyridinyl))oxy)methyl-6H-dipyrido[3,2-b:2 ,3-e][1,4]diazepin-6-one] | 100 | 
2 | CCN1c2ncc(COc3ccccc3O)cc2C(=O)N(C)c2ccc(Cl)nc21 [5-chloro-2-ethyl-13-(2-hydroxyphenoxymethyl)-9-methyl-2,4,9,15-tetraazatricyclo[9.4.0.0^{3,8}]pentadeca-1(11),3,5,7,12,14-hexaen-10-one] |  | IC50 ([1]; pH 7.8, 22 °C): 100 nM
3 | CCN1c2ncc(CS(=O)(=O)c3ccccc3)cc2C(=O)N(C)c2ccc(Cl)nc21 [13-[(benzenesulfonyl)methyl]-5-chloro-2-ethyl-9-methyl-2,4,9,15-tetraazatricyclo[9.4.0.0^{3,8}]pentadeca-1(15),3(8),4,6,11,13-hexaen-10-one] | 100 | 
4 | CCN1c2ncc(CNc3cccc(N)c3)cc2C(=O)N(C)c2ccc(Cl)nc21 [13-{[(3-aminophenyl)amino]methyl}-5-chloro-2-ethyl-9-methyl-2,4,9,15-tetraazatricyclo[9.4.0.0^{3,8}]pentadeca-1(11),3,5,7,12,14-hexaen-10-one] |  | IC50 [2]: 100 nM
